Laboratory results reported in ChEMBL document CHEMBL5505961, “RIPK1 inhibitors: A key to unlocking the potential of necroptosis in drug development” (Eur J Med Chem, 2024).
Values belong to the compound of their own block, whether it stands above or below them.

Legend:
HT-29 [1] = assay: cells; settings: Homo sapiens, HT-29, 1 h
cells = settings: Homo sapiens, HT-29, 1 h
HT-29 [2] = assay: cells; settings: Homo sapiens
HT-29 [3] = assay: cells; settings: Homo sapiens; remark: listed apart in the source
[4] = target: T1, Receptor-interacting serine/threonine-protein kinase 1 (Homo sapiens, UniProt Q13546)
T1 sequence (Q13546 whole entry): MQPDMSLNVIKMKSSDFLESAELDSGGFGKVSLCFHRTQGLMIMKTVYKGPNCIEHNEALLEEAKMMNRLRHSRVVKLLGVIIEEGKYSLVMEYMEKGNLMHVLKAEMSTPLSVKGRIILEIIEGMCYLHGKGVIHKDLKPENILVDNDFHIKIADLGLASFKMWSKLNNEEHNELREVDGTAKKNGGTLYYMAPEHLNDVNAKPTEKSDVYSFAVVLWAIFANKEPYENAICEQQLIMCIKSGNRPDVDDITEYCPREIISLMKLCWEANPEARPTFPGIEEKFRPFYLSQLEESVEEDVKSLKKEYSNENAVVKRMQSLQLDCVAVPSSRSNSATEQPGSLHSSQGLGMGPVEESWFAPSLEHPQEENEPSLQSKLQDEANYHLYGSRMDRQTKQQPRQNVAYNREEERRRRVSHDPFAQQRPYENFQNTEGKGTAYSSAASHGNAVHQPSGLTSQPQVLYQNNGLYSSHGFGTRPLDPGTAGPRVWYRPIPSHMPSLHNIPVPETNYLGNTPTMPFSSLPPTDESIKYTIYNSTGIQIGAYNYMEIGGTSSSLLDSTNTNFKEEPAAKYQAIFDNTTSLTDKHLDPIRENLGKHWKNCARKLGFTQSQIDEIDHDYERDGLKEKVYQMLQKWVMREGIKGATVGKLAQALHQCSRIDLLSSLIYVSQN

[5] = target: Receptor-interacting serine/threonine-protein kinase 2 (Homo sapiens, UniProt O43353)
Chain of Receptor-interacting serine/threonine-protein kinase 2 (O43353 whole entry): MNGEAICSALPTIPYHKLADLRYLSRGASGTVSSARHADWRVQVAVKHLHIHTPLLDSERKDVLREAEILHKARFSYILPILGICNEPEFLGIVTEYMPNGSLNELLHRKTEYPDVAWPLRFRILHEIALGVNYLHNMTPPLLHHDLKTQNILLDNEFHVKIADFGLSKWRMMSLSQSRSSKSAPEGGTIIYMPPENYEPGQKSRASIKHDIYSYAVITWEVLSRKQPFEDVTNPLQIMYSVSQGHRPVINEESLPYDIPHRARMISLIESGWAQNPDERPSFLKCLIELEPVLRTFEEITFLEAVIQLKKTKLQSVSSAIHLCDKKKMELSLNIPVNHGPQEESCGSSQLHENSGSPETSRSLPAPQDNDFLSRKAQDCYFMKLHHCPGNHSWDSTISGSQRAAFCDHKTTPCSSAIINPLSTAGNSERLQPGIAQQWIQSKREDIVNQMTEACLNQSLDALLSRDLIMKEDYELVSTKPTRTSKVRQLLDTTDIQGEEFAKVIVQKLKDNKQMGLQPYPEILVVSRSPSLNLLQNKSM

TOV21G = assay: cells; settings: Homo sapiens
U-937 = assay: cells; settings: Homo sapiens
[6] = target: T2, Receptor-interacting serine/threonine-protein kinase 3 (Homo sapiens, UniProt Q9Y572)
T2 sequence (Q9Y572 whole entry): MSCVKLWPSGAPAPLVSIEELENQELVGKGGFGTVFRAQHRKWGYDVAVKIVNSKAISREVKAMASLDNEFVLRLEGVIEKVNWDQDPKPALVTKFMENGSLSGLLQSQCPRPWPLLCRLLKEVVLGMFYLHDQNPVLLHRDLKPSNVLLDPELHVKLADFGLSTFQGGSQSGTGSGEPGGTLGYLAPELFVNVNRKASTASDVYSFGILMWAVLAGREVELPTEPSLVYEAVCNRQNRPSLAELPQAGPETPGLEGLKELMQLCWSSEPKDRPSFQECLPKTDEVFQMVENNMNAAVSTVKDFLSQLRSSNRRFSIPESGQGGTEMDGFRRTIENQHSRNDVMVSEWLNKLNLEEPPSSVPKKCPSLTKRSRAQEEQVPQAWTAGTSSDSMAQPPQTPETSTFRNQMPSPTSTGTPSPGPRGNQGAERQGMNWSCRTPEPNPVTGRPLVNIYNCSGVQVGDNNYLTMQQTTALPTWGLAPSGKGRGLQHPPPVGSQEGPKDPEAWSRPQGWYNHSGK

HT-29 [7] = assay: cells; settings: Homo sapiens, HT-29, 24 h
Jurkat [8] = assay: cells; settings: Homo sapiens, 24 h
clinical = settings: human
Jurkat [9] = assay: cells; settings: Homo sapiens
Jurkat [10] = assay: Antiproliferative activity against human Jurkat cells assessed as reduction in cell viability by MTT assay; type: functional, cell-based
[11] = target: Indoleamine 2,3-dioxygenase 1 (Homo sapiens, UniProt P14902); assay: Inhibition of IDO (unknown origin)
Chain of Indoleamine 2,3-dioxygenase 1 (P14902 whole entry): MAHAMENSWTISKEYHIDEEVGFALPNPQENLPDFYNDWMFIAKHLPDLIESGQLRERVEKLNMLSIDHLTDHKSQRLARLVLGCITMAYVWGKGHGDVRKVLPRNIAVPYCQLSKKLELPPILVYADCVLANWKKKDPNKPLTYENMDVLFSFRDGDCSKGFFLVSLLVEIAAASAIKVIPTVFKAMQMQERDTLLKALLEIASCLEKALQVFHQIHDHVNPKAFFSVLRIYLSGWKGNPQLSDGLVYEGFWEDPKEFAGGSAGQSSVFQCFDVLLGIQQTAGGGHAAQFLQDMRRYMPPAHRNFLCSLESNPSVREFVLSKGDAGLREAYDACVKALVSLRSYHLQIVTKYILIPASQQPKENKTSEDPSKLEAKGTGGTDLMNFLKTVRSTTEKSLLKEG

L929 = assay: cells; settings: Mus musculus
[12] = target: T2, Receptor-interacting serine/threonine-protein kinase 3; remark: listed apart in the source
[13] = target: T1, Receptor-interacting serine/threonine-protein kinase 1; remark: listed apart in the source
[14] = target: T3, Regulator of chromosome condensation (Homo sapiens, UniProt P18754)
T3 sequence (P18754 whole entry): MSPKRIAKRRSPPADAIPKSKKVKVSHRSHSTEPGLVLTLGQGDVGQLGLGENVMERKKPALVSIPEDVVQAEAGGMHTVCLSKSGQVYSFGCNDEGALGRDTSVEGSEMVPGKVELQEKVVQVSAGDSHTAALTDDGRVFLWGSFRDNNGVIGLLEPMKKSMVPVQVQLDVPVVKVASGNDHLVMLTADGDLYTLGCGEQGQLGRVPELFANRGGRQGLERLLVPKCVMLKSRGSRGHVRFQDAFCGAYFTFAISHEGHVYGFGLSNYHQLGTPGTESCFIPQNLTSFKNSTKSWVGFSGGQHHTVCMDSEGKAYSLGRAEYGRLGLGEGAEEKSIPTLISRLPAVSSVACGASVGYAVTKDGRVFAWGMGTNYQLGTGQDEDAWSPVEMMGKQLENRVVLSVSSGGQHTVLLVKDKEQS

[15] = target: T1, Receptor-interacting serine/threonine-protein kinase 1; remark: listed apart in the source
[16] = target: T4, Eukaryotic translation initiation factor 2-alpha kinase 3 (Homo sapiens, UniProt Q9NZJ5)
T4 sequence (Q9NZJ5 whole entry): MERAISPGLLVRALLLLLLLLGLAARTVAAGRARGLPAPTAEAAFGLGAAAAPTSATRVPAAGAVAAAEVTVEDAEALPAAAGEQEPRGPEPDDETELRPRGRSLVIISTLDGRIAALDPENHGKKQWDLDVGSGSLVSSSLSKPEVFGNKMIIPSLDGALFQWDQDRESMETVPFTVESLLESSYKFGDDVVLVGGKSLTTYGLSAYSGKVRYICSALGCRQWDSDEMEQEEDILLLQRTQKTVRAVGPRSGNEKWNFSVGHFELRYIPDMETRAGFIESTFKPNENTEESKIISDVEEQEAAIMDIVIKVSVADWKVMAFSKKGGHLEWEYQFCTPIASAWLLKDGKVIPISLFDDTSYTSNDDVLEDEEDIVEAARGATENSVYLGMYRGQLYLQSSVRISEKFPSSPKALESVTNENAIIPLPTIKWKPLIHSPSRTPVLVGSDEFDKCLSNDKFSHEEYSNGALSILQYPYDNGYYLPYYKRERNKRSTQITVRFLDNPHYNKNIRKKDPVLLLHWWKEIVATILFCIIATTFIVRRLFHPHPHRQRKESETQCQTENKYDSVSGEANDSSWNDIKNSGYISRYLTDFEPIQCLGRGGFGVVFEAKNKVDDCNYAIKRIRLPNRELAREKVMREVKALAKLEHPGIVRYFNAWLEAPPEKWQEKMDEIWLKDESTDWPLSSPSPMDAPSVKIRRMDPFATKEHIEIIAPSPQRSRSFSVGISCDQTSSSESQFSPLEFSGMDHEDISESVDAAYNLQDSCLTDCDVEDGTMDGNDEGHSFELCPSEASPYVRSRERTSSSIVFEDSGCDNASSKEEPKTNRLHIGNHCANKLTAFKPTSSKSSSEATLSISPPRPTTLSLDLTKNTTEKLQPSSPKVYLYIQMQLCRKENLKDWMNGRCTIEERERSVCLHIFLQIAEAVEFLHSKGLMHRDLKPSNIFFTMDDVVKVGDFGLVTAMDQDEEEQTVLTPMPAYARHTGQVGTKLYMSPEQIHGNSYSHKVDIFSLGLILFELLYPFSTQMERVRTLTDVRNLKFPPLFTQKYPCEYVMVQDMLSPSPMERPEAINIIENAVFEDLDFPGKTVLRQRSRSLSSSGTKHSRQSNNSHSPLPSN

MEF = assay: cells; settings: Mus musculus, 24 h
HT-22 = assay: cells; settings: Mus musculus, HT-22, 24 h
[17] = target: T1, Receptor-interacting serine/threonine-protein kinase 1; assay: biochemical
Aurora kinase A = target: T5, Aurora kinase A (Homo sapiens, UniProt O14965)
T5 sequence (O14965 whole entry): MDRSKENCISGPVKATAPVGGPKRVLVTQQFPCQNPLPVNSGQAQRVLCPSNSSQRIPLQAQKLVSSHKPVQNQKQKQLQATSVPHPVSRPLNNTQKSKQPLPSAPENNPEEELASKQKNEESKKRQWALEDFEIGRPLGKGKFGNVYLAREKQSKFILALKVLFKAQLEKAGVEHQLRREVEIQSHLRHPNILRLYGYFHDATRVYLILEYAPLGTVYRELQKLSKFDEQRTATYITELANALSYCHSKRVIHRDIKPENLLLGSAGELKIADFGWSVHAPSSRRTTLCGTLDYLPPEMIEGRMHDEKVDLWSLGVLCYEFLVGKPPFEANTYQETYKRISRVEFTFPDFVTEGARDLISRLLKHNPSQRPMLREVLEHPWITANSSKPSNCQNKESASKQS

[18] = target: T1, Receptor-interacting serine/threonine-protein kinase 1; remark: listed apart in the source

Structure (SMILES): COc1cc(/C=C/C(=O)N2CCC=CC2=O)cc(OC)c1OC [PIPLARTINE]
- EC50 (HT-29 [1]): 540 nM
- EC50 (cells): 6410 nM

Structure (SMILES): COc1cc(CCc2cc(NC(=O)c3ccc(N4C[C@@H](C)N[C@@H](C)C4)cc3)n[nH]2)cc(OC)c1 [FEXAGRATINIB]
- EC50 (HT-29 [2]): 19 nM
- EC50 (HT-29 [3]): 19 nM
- IC50 [4]: 12 nM
- IC50 [5]: 259 nM
- EC50 (TOV21G): 52 nM
- EC50 (U-937): 31 nM
- IC50 [6]: 10000 nM

Structure (SMILES): CCCCNc1nc2ccc([N+](=O)[O-])cc2[nH]1
- EC50 (cells): 1700 nM

Structure (SMILES): CCCS(=O)(=O)Nc1ccc(F)c(C(=O)c2c[nH]c3ncc(-c4ccc(Cl)cc4)cc23)c1F [VEMURAFENIB]
- EC50 (L929): 3750 nM

Structure (SMILES): CNC(=O)c1cc(Oc2ccc(NC(=O)Nc3cc(C(C)(C)C)nn3-c3ccc4ncccc4c3)c(F)c2)ccn1 [REBASTINIB]
- IC50 [12]: 18.6 nM
- IC50 [13]: 6.49 nM
- EC50 [14]: 18.7 nM

Structure (SMILES): Cn1cc(-c2ccc3c(c2)CCN3C(=O)Cc2cccc(C(F)(F)F)n2)c2c(N)ncnc21
- IC50 [15]: 18.2 nM
- IC50 [16]: 3.8 nM

Structure (SMILES): CC(C)(C)c1cc(NC(=O)Nc2ccc(-c3cn4c(n3)sc3cc(OCCN5CCOCC5)ccc34)cc2)no1 [QUIZARTINIB]
- EC50 (MEF): 66500 nM
- EC50 (HT-22): 194 nM

Structure (SMILES): O=C(c1ccc(-c2cc3cccnc3[nH]2)cc1)N1CCOCC1
- IC50 [17]: 88000 nM

Structure (SMILES): Cc1cc(Nc2cc(N3CCNCC3)nc(Nc3ccc(NC(=O)C4CC4)cc3)n2)n[nH]1
- IC50 (Aurora kinase A): 430 nM
- IC50 [18]: 160 nM

Results, then the compound that gave them:

- EC50 (HT-29 [7]): 1050 nM
Structure (SMILES): O=[N+]([O-])c1ccn(Cc2ccc(Cl)cc2Cl)n1

- EC50 (Jurkat [8]): 400 nM
- half-life (clinical): 32.5 min
Structure (SMILES): Cc1nnsc1C(=O)N[C@H](C)c1c(F)cccc1Cl

- IC50 (Jurkat [9]): 185 nM
- IC50 [6]: 366 nM
Structure (SMILES): CN1C(=O)[C@@H](Cc2c[nH]c3c(Cl)c(F)ccc23)N(C=O)C1=O

- EC50 (Jurkat [10]): 540 nM
- IC50 [11]: 39100 nM
Structure (SMILES): CN1C(=O)C(Cc2c[nH]c3ccccc23)NC1=S (stereo not given) [NECROSTATIN]

- EC50 (Jurkat [9]): 254 nM
Structure (SMILES): Cc1ccc(Nc2nccc(N(C)c3ccc4c(C)n(C)nc4c3)n2)cc1S(N)(=O)=O [PAZOPANIB]

- half-life (clinical): 60 min
Structure (SMILES): CN1C(=O)N[C@@H](Cc2c[nH]c3c(Cl)cccc23)C1=O
